According to patent US5100663A, “Tyr-Gly compositions useful in increasing immune response” (priority 1990, dated 1992):
Read-outs that look alike come from different tables or passages of the source. Non-standard residues stand in square brackets, D forms with d. Residues, ends and D or L forms follow the SMILES beside them.

Columns and labels:
[1] = test system: cell-mediated immune system response; test: Amplifier (immunological) activity of HPLC fractions and their constituents; set-up: species or system human; conditions: for immunological activity as assayed by DH test: moieties in effluents of Example 5 process; for amplifier / immunological activity: HPLC fractions of human leukocyte dialysate and constituents
Text: Absorbance was monitored at […], 0.1 Absorbance Units=Full Scale. […] The first peak was lower than the second and third, in terms of absorbance units, and is believed to be an artifact of the system associated with the ethanol solvent or due to elution of salts. The second and third peaks varied in relative height from preparation to preparation.
Other moieties found present in effluents of this process were Gly-Gly, Ser-Phe, and Ala, along with possibly other amino acid residues as well.

[2] = test system: L1210 leukemia cells in BDF1 strain mice; test: Mouse L1210 leukemia survival test; type: in vivo; conditions: 2 fg intradermally every third day (about 100 fg/kg); 5 mice per group; present-tense example
Description: Ten BDF1 strain mice are divided into two groups of 5. Each mouse is injected with 100 L1210 leukemia cells from ascitic fluid of DBA/2 host mice.
(§1) The mice in Group I (control) are thereafter given injections of 0.1 ml sterile saline every third day. The mice in Group II are thereafter given intradermal injections of 2 fg of synthetic YG of Example 20 in 0.1 ml of sterile saline, every third day. The mice weigh approximately 20 g each, so that 2 fg represents approximately 100 fg/kg of bodyweight.
as §1, with “synthetic Tyr-D-Ala-Gly” for “synthetic YG”, “Example 25” for “Example 20”, “mice were” for “mice weigh”

[3] = test system: gamma-interferon production in normal cells; test: Antigen-induced production of gamma interferon; type: cell-based, human
Text: The LIF assay is described in Gottlieb et al., Modulation of Human T Cell Production, J. Immunology 132: 256-260 (Jan. 1984), at p. 257. Protocols for the other assays are believed to be known to those skilled in this art. A convenient reference for the gamma-interferon assay in Sinha et al., Bio/Technology 6:810 (1988), at pp. 814-15.
Preparations of 0.1 Lf /ml and 1.0 Lf /ml TT were used to determine the effect of Beta-1.11 (endogenous YG-material) on production of gamma-interferon in normal cells. As before, serial dilutions of Beta-1.11 were prepared from 46.5 pM to 91 fM.

[4] = test system: IL-2 receptors on T-helper cells; test: T-helper cell IL-2 receptor expression assay; type: cell-based, human
[5] = test system: DH response to tetanus toxoid (TT); set-up: species or system human; conditions: in vivo

Q: How did the “immunological activity as assayed by DH test” value [1] turn out when `C[C@H](N)C(=O)O` [Ala] was run?
A: None of these other moieties appeared to possess immunological activity

Q: Which results are given for `C[C@@H](NC(=O)[C@@H](N)Cc1ccc(O)cc1)C(=O)NCC(=O)O` [Tyr-D-Ala-Gly, L-tyrosyl-D-alanyl-L-glycine] (H-Tyr-[dA]-Gly-OH)?
A: mean survival longer than control group [2]: approximately 2.8 days; concentration at maximum gamma-interferon production ([3]; 1.0 Lf/ml TT): approximately 20 fM; potency relative to endogenous YG-material ([3]; gamma interferon assay, human sources not identical): an order of magnitude more potent; concentration giving the highest figure for high density of receptors [4]: approximately 2 fM; effect relative to endogenous material [4]: approximately an order of magnitude less in effect than endogenous YGG-material; increase of IL-2 receptors (high density maximum), factor [4]: approximately 1.5; amplifier effect in DH assay [5]: slightly better than that observed in Table 1 of Gottlieb U.S. Pat. No. 4,699,898; skin reaction without TT [5]: No reaction is observed

Q: How did the “potency relative to corresponding endogenous amplifier materials Beta-1.11 and Beta-1.12” value [5] turn out when `N[C@@H](Cc1ccc(O)cc1)C(=O)NCC(=O)NCC(=O)O` [YGG, L-tyrosylglycylglycine] (H-Tyr-Gly-Gly-OH) was run?
A: an order of magnitude less potent

Q: For `N[C@@H](Cc1ccccc1)C(=O)O` [phenylalanine], which “amplifier / immunological activity” value [1] is on record?
A: found to lack intrinsic amplifier activity

Q: With `N[C@@H](Cc1ccc(O)cc1)C(=O)NCC(=O)O` [synthetic YG, L-tyrosylglycine] as the compound, how does the “mean survival longer than control group” value [2] read?
A: approximately 2.4 days

Q: What about the “increase of IL-2 receptors (high density maximum), factor” value [4] of the same compound?
A: approximately 1.6

Q: And the “concentration giving the highest figure for high density of receptors” value ([4]; TT + serial dilutions)?
A: approximately 22 fM

Q: And the “potency relative to corresponding endogenous amplifier materials Beta-1.11 and Beta-1.12” value [5]?
A: an order of magnitude less potent

Q: Which results are given for Gly-Gly?
A: amplifier / immunological activity [1]: found to lack intrinsic amplifier activity; immunological activity as assayed by DH test [1]: None of these other moieties appeared to possess immunological activity

Q: How did the “immunological activity in DH assay” value [5] turn out when “Tyr-Gly-Gly-Phe-Ile (YGGFI; printed: Tyr-Gly-Gly-Phe-Ile)” was run?
A: Significant immunological activity is not observed

Q: And the “molar concentration giving activity comparable to YG, relative to YG in Example 21” value [5]?
A: 8-10 orders of magnitude
